# From patent US20230087388A1, “INHIBITORS OF HUMAN DEUBIQUITINASES FOR THE TREATMENT OF CORONAVIRAL INFECTIONS” (Immunologik GmbH, priority 2020, published 2023)
# “Also recorded” adds a separate entry of the source.
# Key:
# SARS-CoV-2 [1] = format: cell-based
# [2] = target: T1, papain-like protease (PLpro) of SARS-CoV-2 (Severe acute respiratory syndrome coronavirus 2, UniProt P0DTD1); format: biochemical
# T1 construct: They are the papain-like proteases (PLpro), encoded within nsp3; purchased R&D biosystems E-611-050
# SARS-CoV-2 [3] = test: qRT-PCR of viral RNA from SARS-CoV-2 infected Vero-B4 cells; format: cell-based; conditions: 10 μM, 3 d treatment, 3 independent experiments; compared with 10 μM chloroquine or hydroxychloroquine
# Description: Therefore, virus-containing samples were quantified by real-time PCR AgPath-ID One-Step RT-PCR Kit from Ambion (Cat: 4387424) allowing reverse transcription, cDNA synthesis and PCR amplification in a single step. Samples were analyzed by 7500 software v2.3 (applied Bioscience). PCR primers were used according to 44: RdRp_fwd: 5′-GTG-ARA-TGG-TCA-TGT-GTG-GCG-G-3′ and RdRp_rev 5′-CAR-ATG-TTA-AAS-ACA-CTA-TTA-GCA-TA-C-3′. Probe was 5′-CAG-GTG-GAA-/ZEN/CCT-CAT-CAG-GAG-ATG-C-3′ (Label: FAM/IBFQ Iowa Black FQ). As positive control a specific target for E and RdRp gen of SARS-CoV2 was used and made by Integrated DNA Technologies. Control: 5′-TAA-TAC-GAC-TCA-CTA-TAG-GGT-ATT-GAG-TGA-AAT-GGT-CAT-GTG-TGG-CGG-TTC-ACT-ATA-TGT-TAA-ACC-AGG-TGG-AAC-CTC-ATC-AGG-AGA-TGC-CAC-AAC-TGC-TTA-TGC-TAA-TAG-TGT-TTT-TAA-CAT-TTG-GAA-GAG- ACA-GGT-ACG-TTA-ATA-GTT-AAT-AGC-GTA-CTT-CTT-TTT-CTT-GCT-TTC-GTG-GTA-TTC-TTG-CTA-GTT-ACA-CTA-GCC-ATC-CTT-ACT-GCG-CTT-CGA-TTG-TGT-GCG-TAC-TGC-TGC-AAT-ATT-GTT-3′. The annealing temperature was 60° C. The experimental procedure containing the infection, treatment and isolation of virions was the same as described for the Western blot analysis. The evaluation of qRT-PCR analysis clearly confirmed the results of the Western blot experiments.
# Vero-B4 cells = conditions: WST assay, 3 days
SMILES,"reduction in the release of SARS-CoV-2 proteins (densitometric analysis) (SARS-CoV-2 [1]; 1.25 μM P5091, 3 d treatment, 3 independent experiments, untreated = 100%)","release of SARS-CoV-2 proteins / replication of SARS-CoV-2 (SARS-CoV-2 [1]; 5 μM P5091, infected Vero-B4 cells, 3 d treatment)","release of viral proteins in Western Blot (SARS-CoV-2 [1]; different concentrations of P5091, 3 d treatment)","inhibitory effect on SARS-CoV-2 PLpro activity ([2]; 20 nM recombinant PLpro, ISG15-AMC substrate, 30 min pretreatment, 120 min readout, PR-619 1.25-10 μM, P5091 1.5-6 μM)","reduction of activity of PLpro from SARS-CoV-2 (AUC) ([2]; 6 μM P5091, n=3)",amount of viral RNA (qRT-PCR) (SARS-CoV-2 [3]),inhibition of replication of SARS-CoV-2 in infected Vero-B4 cells (SARS-CoV-2 [1]; 10 μM PR-619),"SARS-CoV-2 proteins in Western Blot, virus and cell fraction (SARS-CoV-2 [1]; 10 μM PR-619, infected Vero-B4 cells, 3 dpi)","generation of SARS-CoV-2 proteins, densitometric evaluation (nucleoprotein virus fraction, spike S1 cell fraction) (SARS-CoV-2 [1]; 10 μM, 3 d treatment, 3 independent experiments, compared with 10 μM chloroquine or hydroxychloroquine)",concentration at which a clear toxic effect started (Vero-B4 cells)
"CC(=O)c1cc([N+](=O)[O-])c(Sc2cccc(Cl)c2Cl)s1 [P5091, 1-[5-[(2,3-dichlorophenyl)thio]-4-nitro-2-thienyl]-ethanone]",90%,complete block; also recorded: nearly completely inhibit,dose-dependent decrease,dose dependent reduction; also recorded: direct inhibitory action,80%,,,,,
"N#CSc1cc(SC#N)c(N)nc1N [PR-619, 2,6-diaminopyridine-3,5-bis(thiocyanate)]",,,,,,significantly reduced,broadly inhibit,clear reduction,significantly inhibited,over 20 μM
